The conditions of series [1]: 25° C., cited from earlier work; for Solubility of Parabens, Ethanol: solvent ethanol; for Solubility of Parabens, Propylene glycol: solvent propylene glycol; for Solubility of Parabens, Water: solvent water.
The format of series [2] is physicochemical. The conditions noted are these: pH 4.5. On the procedure:
This water was used as a test media for determining the solubility of test/reference items. Stock solutions of concentration 1 mg/mL for test items/reference items was prepared in methanol. The stock solution will be used for preparation of calibration curve standards. Calibration curve of test/reference items was prepared by serially dilution consisting of 4-5-6 concentrations in 96 well format. […] The method was as follows: Calibration curve of test items were prepared by serial dilution consisting of 8 concentrations. […] Water, 50:50). […] 40 mg of test items were weighed into tubes. […] The initial pH of the solubility samples were recorded. […] Then, the solutions were observed visually for any precipitation. […] An aliquot of the supernatant were diluted with equal volume of methanol. […] The samples were then transferred to UV plate and scanned at λmax of that particular test/reference item. Compound #12 was transferred to auto-sampler vials and submitted for LC-MS/MS analysis.

The nature of series [3]: Determination of Dissociation Constant (pKa) by Potentiometric Titration Method. In kind it is physicochemical. The conditions noted are these: pH 4.5, Table 3, 0.1 mg/ml, 22° C. On the procedure: Potentiometric Titration Method: A calibrated pH meter was used for the assay. 50 mL solution of each test/reference item solution (0.1 mg/mL) was added to four beakers (two for acid titration and two for base titration). 0.1 N Sodium hydroxide (NaOH) solution was prepared as titrant solution. The pH electrode was placed into the beaker containing test/reference item solution. The initial pH of the solution will be recorded. 100 μL of 0.1 N NaOH was added successively with stirring and the pH at each addition was recorded. Base titrations were carried out individually in duplicates until a sudden shift in the pH was observed.

For series [4], the system named is Burkholderia cepacia (ATCC 25416). The experiment in a line: Anti-bacterial Minimum Inhibitory Concentration (MIC) Method, microbroth dilution. In kind it is cell-based. The conditions noted are these: Table 4; CAMHB, 37° C., 24 hours, pH 4.5-adjusted stock. On the procedure: (§1) Anti-Bacterial and Anti-Fungal Minimum Inhibitory Concentration (MIC) Method Method: Microbroth Dilution Method (96-well format). Test item: […] Solvent: Sterile MilliQ water and 0.1 M Citrate Buffer pH 4.5 Media used: • Bacterial: Cation-Adjusted Mueller-Hinton Broth (CAMHB) • Fungi: RPMI-1640 […] Fungi: • Incubation Temperature: • 25° C. (Candida albicans) • 35° C. (Aspergillus brasiliensis) • Incubation Time: 48 hours • Inoculum Size: 5×10^4 cfu/mL • Strains: • Candida albicans (ATCC 10231) • Aspergillus brasiliensis (ATCC 16404) • End point: Inhibition of growth, Spectrophotometer Reading @ 600 nm • Reference standards: […] All solubilized and pH 4.5-adjusted test compounds were filter-sterilized before subjecting to MIC study. […] All the strains were inoculated on their respective agar medium and incubated under conditions/durations detailed above. • Preparation of inoculum: • The bacterial colony suspension in 0.85% saline was adjusted to 1 McFarland's standard using […] which was further diluted to 1:100 in CAMHB. The fungal suspension for inoculation was prepared in 0.85% saline from 6 days old culture (for mold, A. brasiliensis) and from 2 days old culture (for yeast, C. albicans) from Sabouraud Dextrose agar medium. […] Micro titer plates were prepared as per the CLSI recommendations. One hundred and seventy five microliters of Cation-adjusted Muller Hinton Broth (CAMHB) was added to the first column of a 96 well flat bottom plate, which is the media control. Second column is for the stocks of the test compounds and reference standards from which dilutions are made. Then 175 μL of CAMHB was added to the 5th, 8th and 11th columns, 75 μL of CAMHB to the 4th, 7th and 10th columns and 50 μL of CAMHB to the 3rd, 6th and 9th columns and the last column was the organism control.

The subject of series [5] is Escherichia coli (ATCC 8739). Described as above. The settings on record: Table 4; CAMHB, 37° C., 24 hours, pH 4.5-adjusted stock. The class given is cell-based. On the procedure: as §1
Series [6] relates to Pseudomonas aeruginosa (ATCC 9027). The series is described as above. In kind it is cell-based. The conditions noted are these: Table 4; CAMHB, 37° C., 24 hours, pH 4.5-adjusted stock. On the procedure: as §1
For series [7], the system named is Staphylococcus aureus (ATCC 6538). The description is as above. In kind it is cell-based. The conditions noted are these: Table 4; CAMHB, 37° C., 24 hours, pH 4.5-adjusted stock. On the procedure:
as §1

The test system of series [8] is Aspergillus brasiliensis (ATCC 16404). The experiment in a line: Anti-fungal Minimum Inhibitory Concentration (MIC) Method, microbroth dilution. In kind it is cell-based. The settings on record: Table 4, RPMI-1640, 35° C., 48 hours, pH 4.5-adjusted stock. On the procedure: (§2) Anti-Bacterial and Anti-Fungal Minimum Inhibitory Concentration (MIC) Method Method: Microbroth Dilution Method (96-well format). Test item: […] Solvent: Sterile MilliQ water and 0.1 M Citrate Buffer pH 4.5 Media used: • Bacterial: Cation-Adjusted Mueller-Hinton Broth (CAMHB) • Fungi: RPMI-1640 Fungi: • Incubation Temperature: • 25° C. (Candida albicans) • 35° C. (Aspergillus brasiliensis) • Incubation Time: 48 hours • Inoculum Size: 5×10^4 cfu/mL • Strains: • Candida albicans (ATCC 10231) • Aspergillus brasiliensis (ATCC 16404) • End point: Inhibition of growth, Spectrophotometer Reading @ 600 nm • Reference standards: […] All solubilized and pH 4.5-adjusted test compounds were filter-sterilized before subjecting to MIC study. […] All the strains were inoculated on their respective agar medium and incubated under conditions/durations detailed above. • Preparation of inoculum: • The bacterial colony suspension in 0.85% saline was adjusted to 1 McFarland's standard using […] which was further diluted to 1:100 in CAMHB. The fungal suspension for inoculation was prepared in 0.85% saline from 6 days old culture (for mold, A. brasiliensis) and from 2 days old culture (for yeast, C. albicans) from Sabouraud Dextrose agar medium. […] Micro titer plates were prepared as per the CLSI recommendations. One hundred and seventy five microliters of Cation-adjusted Muller Hinton Broth (CAMHB) was added to the first column of a 96 well flat bottom plate, which is the media control. Second column is for the stocks of the test compounds and reference standards from which dilutions are made. Then 175 μL of CAMHB was added to the 5th, 8th and 11th columns, 75 μL of CAMHB to the 4th, 7th and 10th columns and 50 μL of CAMHB to the 3rd, 6th and 9th columns and the last column was the organism control.

Series [9] relates to Candida albicans (ATCC 10231). The series is described as above. The class given is cell-based. The conditions noted are these: Table 4, RPMI-1640, 25° C., 48 hours, pH 4.5-adjusted stock. On the procedure: as §2

Regarding `CCCCOC(=O)c1ccc(O)cc1` [Butylparaben], in [1], the “Solubility of Parabens, Ethanol” value was 68 % w/w; the “Solubility of Parabens, Propylene glycol” value is given as 49 % w/w; the “Solubility of Parabens, Water” value is on record as 0.02 % w/w.
Take `O=C(OCC(O)CO)c1ccccc1` (stereo not shown) [Compound 9, Benzoic acid 2,3-dihydroxypropyl ester]: in series [2], the “Solubility (wt %)” value is above 1.0 wt %. In addition, in series [3] (ultrapure water), the pKa (commonly the negative logarithm of the acid dissociation constant) was above 7. In series [4], the “MIC (%) B. cepacia” value came to 0.25%. For the same compound, in [5], the “MIC (%) E. coli” value is reported as 0.5%. The “MIC (%) P. aeruginosa” value in series [6] worked out at 0.5%. Moreover, the “MIC (%) S. Aureus” value in [7] worked out at 0.25%. Further, the “MIC (%) A. brasiliensis” value in [8] is on record as above 1%; in series [8] (listed as #9), above 1.0%. Further, the “MIC (%) C. albicans” value in series [9] is given as above 1%; in [9] (listed as #9), above 1.0%.
As to `O=C(OCCCCO)c1ccccc1` [Compound 10, Benzoic acid 4-hydroxy-butyl ester], in series [2], the “Solubility (wt %)” value is 0.47 wt %. This compound also registered a pKa in [3] (ultrapure water) above 7. Moreover, in [4], the “MIC (%) B. cepacia” value is recorded as 0.057%. Also, the “MIC (%) E. coli” value in series [5] is on record as 0.115%. For the same compound, the “MIC (%) P. aeruginosa” value in [6] turned out to be 0.115%. Besides, in series [7], the “MIC (%) S. Aureus” value came out at 0.057%. Besides, the “MIC (%) A. brasiliensis” value in [8] stood at 0.028%. In addition, the “MIC (%) C. albicans” value in series [9] turned out to be 0.115%.
As to `O=C(OCCCO)c1ccccc1` [Compound 11, Benzoic acid 3-hydroxy-propyl ester], the “Solubility (wt %)” value in [2] turned out to be 0.55 wt %. This compound showed a pKa in [3] above 7. Moreover, the “MIC (%) B. cepacia” value in series [4] is on record as 0.136%. The “MIC (%) E. coli” value in [5] was found to be 0.272%. The “MIC (%) P. aeruginosa” value in series [6] was above 0.272%. In addition, in series [7], the “MIC (%) S. Aureus” value was determined as 0.272%. Besides, the “MIC (%) A. brasiliensis” value in series [8] worked out at 0.068%. In addition, the “MIC (%) C. albicans” value in series [9] was determined as 0.136%.
Regarding `CCC(O)COC(=O)c1ccccc1` (stereo not shown) [Compound 12, Benzoic acid 2-hydroxy-butyl ester], the “Solubility (wt %)” value in [2] was 0.24 wt %. In series [3] (ultrapure water), this compound returned a pKa above 7. In addition, the “MIC (%) B. cepacia” value in series [4] was found to be 0.1175%. In addition, the “MIC (%) E. coli” value in series [5] amounted to 0.0588%. Besides, the “MIC (%) P. aeruginosa” value in series [6] was above 0.1175%. In [7], the “MIC (%) S. Aureus” value is recorded as 0.1175%. Moreover, the “MIC (%) A. brasiliensis” value in [8] is 0.0588%. Moreover, in series [9], the “MIC (%) C. albicans” value turned out to be 0.1175%.
Turning to `CCOC(=O)c1ccc(O)cc1` [Ethylparaben], in [1], the “Solubility of Parabens, Ethanol” value is recorded as 41 % w/w; the “Solubility of Parabens, Propylene glycol” value was 20 % w/w; the “Solubility of Parabens, Water” value was 0.11 % w/w.
